From ChEMBL document CHEMBL5058564, “EUbOPEN Chemogenomics Library 2 (Incucyte)” (2022)
*1 amine or outer side, *2 acyl side, *3 side chain or, on linkers, in order; H or OH if unused. Where a SMILES comes first, the peptide text is derived from it. Bridges are numbered along the chain shown (N, C = ends). X1 = O=C(CCC[*:2])[*:1]

What was measured:
Type in all cases: toxicity, cell-based
[1] = tested on: HEK-293T; experiment: Incucyte cell viability with HEK293T; conditions: human, 10 µM, compound concentration 10 uM
[2] = tested on: Fibroblast; experiment: Incucyte cell viability with human fibroblast; conditions: 10 µM, compound concentration 10 uM
[3] = tested on: U2OS; experiment: Incucyte cell viability with U2OS; conditions: human, 10 µM, compound concentration 10 uM
[4] = 0 h, replicate number 1, timepoint 0 hours
[5] = 0 h, replicate number 2, timepoint 0 hours
[6] = 6 h, replicate number 2, timepoint 6 hours
[7] = 12 h, replicate number 1, timepoint 12 hours
[8] = 18 h, replicate number 1, timepoint 18 hours
[9] = 24 h, replicate number 1, timepoint 24 hours
[10] = 6 h, replicate number 1, timepoint 6 hours
[11] = 12 h, replicate number 2, timepoint 12 hours
[12] = 18 h, replicate number 2, timepoint 18 hours
[13] = 24 h, replicate number 2, timepoint 24 hours
Further: unitless GR value; below 1 slowed growth and below 0 cell loss.

Row | SMILES | Growth Rate [1, 5] | Growth Rate [1, 7] | Growth Rate [1, 8] | Growth Rate [1, 9] | Growth Rate [2, 4] | Growth Rate [2, 5] | Growth Rate [2, 7] | Growth Rate [2, 8] | Growth Rate [2, 9] | Growth Rate [3, 5] | Growth Rate [3, 10] | Growth Rate [3, 11] | Growth Rate [3, 8] | Growth Rate [3, 12] | Growth Rate [3, 9] | Growth Rate [1, 10] | Growth Rate [2, 10] | Growth Rate [2, 11] | Growth Rate [3, 4] | Growth Rate [3, 13] | also measured
1 | O=C1c2c(Br)c(Br)c(Br)c(Br)c2C(=O)N1c1ncc[nH]1 | 0.87 | 0.51 | 0.67 | 0.91 | -1 | 0.94 | 0.69 | 0.62 | 0.65 | -1 | 0.46 | 0.89 | 0.89 | 1 | 0.98 |  |  |  |  |  | Growth Rate [1, 4]: 0.24; Growth Rate [1, 6]: 0.45; Growth Rate [2, 6]: 0.37
2 | C[C@H](CCC(=O)O)[C@H]1CC[C@H]2[C@@H]3CC[C@@H]4C[C@H](O)CC[C@]4(C)[C@H]3CC[C@]12C [LITHOCHOLIC ACID] | 0.75 | 0.56 | 0.75 | 0.76 |  | 0.62 | 0.42 | 0.36 | 0.22 | 0.03 |  | 0.77 | 0.78 | 0.79 | 0.96 | 0.39 | 0.65 | 0.98 | 0.9 | 0.75 | Growth Rate [1, 4]: 0.8; Growth Rate [1, 11]: 0.96; Growth Rate [1, 13]: 0.86; Growth Rate [2, 12]: 0.98; Growth Rate [2, 13]: 0.78; Growth Rate [3, 6]: 0.51; Growth Rate [3, 7]: 0.79
3 | N#Cc1c(N)nc(SCc2csc(-c3ccc(Cl)cc3)n2)c(C#N)c1-c1ccc(OCCO)cc1 [CAPADENOSON] | 0.32 | 0.54 | 0.36 | 0.31 | 0.09 | -0.41 | -0.47 | -0.41 | -0.34 | 0.97 | 0.52 | 0.81 | 0.66 | 0.87 | 0.79 | 0.99 | -0.5 | 0.37 | 0.75 | 0.83 | Growth Rate [1, 4]: 0.41; Growth Rate [1, 6]: 0.69; Growth Rate [1, 11]: 0.46; Growth Rate [1, 12]: 0.44; Growth Rate [1, 13]: 0.41; Growth Rate [2, 6]: 0.85; Growth Rate [2, 12]: 0.66; Growth Rate [2, 13]: 0.54; Growth Rate [3, 7]: 0.6
4 | COc1ccc(S(=O)(=O)N2C(=O)[C@@](c3ccccc3OC)(N3C[C@H](O)C[C@H]3C(=O)N(C)C)c3cc(Cl)ccc32)c(OC)c1 |  |  |  |  |  |  | 0.09 | 0.36 | 0.43 | -1 | 0.33 |  | 0.82 | 0.98 |  |  | 0.08 | 0.24 | 0.6 | 0.9 | Growth Rate [1, 6]: 0.78; Growth Rate [2, 6]: -0.04; Growth Rate [2, 12]: 0.45; Growth Rate [2, 13]: 0.6
5 | O=C(O)CCC/C=C\C[C@H]1C(=O)C[C@@H](O)[C@@H]1/C=C/[C@@H](O)CCc1ccccc1 | -0.05 | 0.68 | 1 | 0.89 | 0.15 | -0.3 | 0.4 | 0.74 | 0.66 |  | 0.41 |  | 0.77 |  | 0.97 | 0.8 | 0 |  | 0.49 |  | Growth Rate [3, 7]: 0.52
6 | O=C(c1cc(C2CC2)on1)N(C1CCCCC1)C1CCCCC1 | 0.08 | 0.55 | 0.64 | 0.74 | 0.81 |  | 0.15 | 0.82 | 0.78 |  | 0.89 |  |  |  |  | 0.27 | -0.36 | 0.97 | 0.64 | 1 | Growth Rate [1, 11]: 0.56; Growth Rate [1, 12]: 0.68; Growth Rate [1, 13]: 0.67; Growth Rate [2, 12]: 0.86; Growth Rate [2, 13]: 0.8; Growth Rate [3, 6]: 0.71; Growth Rate [3, 7]: 0.7
7 | CO[C@H]1CNC[C@@H](OCC2CCC(F)(F)CC2)[C@@H]1Nc1ncc(-c2cncc(C)c2)c2cc(C)c(=O)[nH]c12 | 0.51 | 0.87 | 0.84 | 0.85 | 0.72 | 0.95 | 0.16 | 0.28 | 0.1 |  | 0.62 | 0.98 | 0.7 | 0.97 | 0.53 |  | 0.63 | 0.53 | -0.36 | 1 | Growth Rate [2, 6]: 0.24; Growth Rate [2, 12]: 0.64; Growth Rate [2, 13]: 0.73; Growth Rate [3, 7]: 0.39
8 | CC(C)OC(=O)N1CCC(Oc2ncnc3c2cnn3-c2ccc(S(C)(=O)=O)cc2F)CC1 |  | 0.82 | 0.98 |  | 0.77 | -0.13 | 0.04 | 0.38 | 0.47 | -1 |  |  |  |  |  | 0.81 | 0.15 | 0.61 |  | 0.97 | Growth Rate [2, 12]: 0.58; Growth Rate [2, 13]: 0.69; Growth Rate [3, 6]: 0.7
9 | CCOc1ccc(Cc2nc3cc(C(=O)N(CC)CC)ccc3n2CC2CCCCC2)cc1 | 0.57 | 0.75 | 0.86 | 0.93 | 0.96 |  |  |  |  | -1 |  |  |  | 1 |  |  |  | 0.58 | -0.21 |  | Growth Rate [1, 4]: 0.75; Growth Rate [1, 6]: 0.53; Growth Rate [2, 6]: 0.61; Growth Rate [2, 12]: 0.98
10 | CN1CCN2c3ncccc3Cc3ccccc3C2C1 (configuration not stated) [MIRTAZAPINE] |  |  |  |  |  |  |  |  |  | -0.76 |  | 0.97 |  | 0.79 | 0.96 |  |  |  |  | 0.85 | Growth Rate [1, 6]: 0.53; Growth Rate [3, 7]: 0.81
11 | CCCn1c(=O)c2[nH]c(-c3ccc(OCC(=O)Nc4ccc(C#N)cc4)cc3)nc2n(CCC)c1=O | 0.64 | 0.85 | 0.94 |  |  |  |  |  |  | -1 |  |  |  |  |  | 0.24 |  |  | 0.37 |  | 
12 | CCCOc1ccc2[nH]cc(C3=CCNCC3)c2n1.Cl |  |  |  |  |  |  |  |  |  |  | 0.81 | 0.93 | 0.82 | 0.95 | 0.92 |  |  |  |  | 0.93 | Growth Rate [1, 6]: 0.51; Growth Rate [1, 11]: 0.75; Growth Rate [1, 12]: 0.95; Growth Rate [3, 7]: 0.67
13 | CN1CCN2c3ccccc3Cc3ccccc3C2C1.Cl (configuration not stated) [MIANSERIN HYDROCHLORIDE] | 0.8 |  |  |  |  |  |  |  |  | -1 |  | 0.97 | 0.96 | 0.94 |  |  |  |  |  | 0.97 | Growth Rate [3, 6]: 0.85
14 | C[C@H](NC(=O)c1c(C(F)F)nn(C)c1Oc1cccc(C(F)(F)F)c1)c1ccc(C(=O)O)cc1 [PALUPIPRANT] |  |  |  |  | 0.19 | 0.08 |  | 0.96 |  | -1 |  |  | 0.93 |  |  |  |  |  | -0.16 |  | 
15 | CC[C@H](C)[C@@H]1NC(=O)[C@H](Cc2ccc(OC)cc2)NC(=O)CCCSC[C@@H](C(=O)N2CCC[C@H]2C(=O)N[C@@H](CC(C)C)C(=O)NCC(N)=O)NC(=O)[C@H](CC(N)=O)NC(=O)[C@H](CCC(N)=O)NC1=O [CARBETOCIN] (Y(Me)IQNCPLG-NH2; linker N-5 via X1) | -0.11 | 0.63 | 0.76 | 0.89 | 0.35 | 0.98 |  | 0.85 | 0.54 |  |  |  |  |  |  | 1 |  |  |  |  | Growth Rate [1, 4]: 0.31; Growth Rate [1, 12]: 1; Growth Rate [1, 13]: 0.92
